Laboratory results taken from ChEMBL document CHEMBL4507304, “Data for DCP probe TP-021” (2021).

What was measured:
[1] = biological target: Serine/threonine-protein kinase PAK 4 (Homo sapiens) (UniProt O96013); conditions: Compound concentration 1000.0 nM
[2] = biological target: Serine/threonine-protein kinase Nek11 (Homo sapiens) (UniProt Q8NG66); conditions: Compound concentration 1000.0 nM
[3] = biological target: Ribosomal protein S6 kinase alpha-2 (Homo sapiens) (UniProt Q15349); conditions: Compound concentration 1000.0 nM
[4] = biological target: Mitotic checkpoint serine/threonine-protein kinase BUB1 (Homo sapiens) (UniProt O43683); conditions: Compound concentration 1000.0 nM
[5] = biological target: TGF-beta receptor type-2 (Homo sapiens) (UniProt P37173); conditions: Compound concentration 1000.0 nM
[6] = biological target: Ribosomal protein S6 kinase alpha-1 (Homo sapiens) (UniProt Q15418); conditions: Compound concentration 1000.0 nM
[7] = biological target: MAP kinase-interacting serine/threonine-protein kinase 2 (Homo sapiens) (UniProt Q9HBH9); conditions: Compound concentration 1000.0 nM
[8] = biological target: Rhodopsin kinase GRK1 (Homo sapiens) (UniProt Q15835); conditions: Compound concentration 1000.0 nM
[9] = biological target: Serine/threonine-protein kinase 32A (Homo sapiens) (UniProt Q8WU08); conditions: Compound concentration 1000.0 nM
[10] = biological target: Dual specificity protein kinase CLK2 (Homo sapiens) (UniProt P49760); conditions: Compound concentration 1000.0 nM
[11] = biological target: Serine/threonine-protein kinase Nek10 (Homo sapiens) (UniProt Q6ZWH5); conditions: Compound concentration 1000.0 nM
[12] = biological target: G protein-coupled receptor kinase 3 (Homo sapiens) (UniProt P35626); conditions: Compound concentration 1000.0 nM
[13] = biological target: Serine/threonine-protein kinase PAK 3 (Homo sapiens) (UniProt O75914); conditions: Compound concentration 1000.0 nM
[14] = biological target: Cyclin-dependent kinase 5 (Homo sapiens) (UniProt Q00535); conditions: Compound concentration 1000.0 nM
[15] = system: Receptor-type tyrosine-protein kinase FLT3 (Homo sapiens), P36888 [D835V]; conditions: Compound concentration 1000.0 nM
[16] = biological target: Phosphatidylinositol 4,5-bisphosphate 3-kinase catalytic subunit alpha isoform (Homo sapiens) (UniProt P42336); conditions: Compound concentration 1000.0 nM
[17] = biological target: Serine/threonine-protein kinase 26 (Homo sapiens) (UniProt Q9P289); conditions: Compound concentration 1000.0 nM
[18] = biological target: Tyrosine-protein kinase BTK (Homo sapiens) (UniProt Q06187); conditions: Compound concentration 1000.0 nM
[19] = biological target: Ephrin type-B receptor 2 (Homo sapiens) (UniProt P29323); conditions: Compound concentration 1000.0 nM
[20] = system: Tyrosine-protein kinase ABL1 (Homo sapiens), P00519 [Y253F]; conditions: Compound concentration 1000.0 nM
[21] = biological target: Phosphatidylinositol 5-phosphate 4-kinase type-2 gamma (Homo sapiens) (UniProt Q8TBX8); conditions: Compound concentration 1000.0 nM
[22] = biological target: Insulin-like growth factor 1 receptor (Homo sapiens) (UniProt P08069); conditions: Compound concentration 1000.0 nM
[23] = biological target: Alpha-1B adrenergic receptor (Homo sapiens) (UniProt P35368); conditions: Compound concentration 10.0 uM
[24] = biological target: Receptor tyrosine-protein kinase erbB-3 (Homo sapiens) (UniProt P21860); conditions: Compound concentration 1000.0 nM
[25] = system: Receptor-type tyrosine-protein kinase FLT3 (Homo sapiens), P36888 [R834Q]; conditions: Compound concentration 1000.0 nM
[26] = biological target: Tyrosine-protein kinase Yes (Homo sapiens) (UniProt P07947); conditions: Compound concentration 1000.0 nM
[27] = biological target: Mitogen-activated protein kinase kinase kinase 12 (Homo sapiens) (UniProt Q12852); conditions: Compound concentration 1000.0 nM
[28] = biological target: Microtubule-associated serine/threonine-protein kinase 1 (Homo sapiens) (UniProt Q9Y2H9); conditions: Compound concentration 1000.0 nM
[29] = system: Phosphatidylinositol 4,5-bisphosphate 3-kinase catalytic subunit alpha isoform (Homo sapiens), P42336 [I800L]; conditions: Compound concentration 1000.0 nM
[30] = biological target: Cyclin-dependent kinase-like 3 (Homo sapiens) (UniProt Q8IVW4); conditions: Compound concentration 1000.0 nM
[31] = biological target: D(4) dopamine receptor (Homo sapiens) (UniProt P21917); conditions: Compound concentration 10.0 uM
[32] = biological target: BMP-2-inducible protein kinase (Homo sapiens) (UniProt Q9NSY1); conditions: Compound concentration 1000.0 nM
[33] = biological target: Dual specificity mitogen-activated protein kinase kinase 4 (Homo sapiens) (UniProt P45985); conditions: Compound concentration 1000.0 nM
[34] = biological target: Serine/threonine-protein kinase N2 (Homo sapiens) (UniProt Q16513); conditions: Compound concentration 1000.0 nM
[35] = biological target: Mitogen-activated protein kinase 9 (Homo sapiens) (UniProt P45984); conditions: Compound concentration 1000.0 nM
[36] = biological target: Serine/threonine-protein kinase DCLK2 (Homo sapiens) (UniProt Q8N568); conditions: Compound concentration 1000.0 nM
[37] = biological target: Ephrin type-A receptor 5 (Homo sapiens) (UniProt P54756); conditions: Compound concentration 1000.0 nM
[38] = biological target: Mitogen-activated protein kinase kinase kinase 10 (Homo sapiens) (UniProt Q02779); conditions: Compound concentration 1000.0 nM
[39] = biological target: Dual specificity mitogen-activated protein kinase kinase 2 (Homo sapiens) (UniProt P36507); conditions: Compound concentration 1000.0 nM
[40] = biological target: 5-hydroxytryptamine receptor 7 (Homo sapiens) (UniProt P34969); conditions: Compound concentration 10.0 uM
[41] = biological target: GABA-A receptor; anion channel (Rattus norvegicus) (UniProt O09028+P15431+P18506+P18508+P19969+P20236+P23574+P23576+P28471+P28473+P30191+P62813+P63079+P63138+Q91ZM7+Q9ES14); conditions: Compound concentration 10.0 uM
[42] = biological target: Cyclin-dependent kinase 9 (Homo sapiens) (UniProt P50750); conditions: Compound concentration 1000.0 nM
[43] = biological target: Casein kinase I isoform epsilon (Homo sapiens) (UniProt P49674); conditions: Compound concentration 1000.0 nM
[44] = biological target: 5-hydroxytryptamine receptor 2A (Homo sapiens) (UniProt P28223); conditions: Compound concentration 10.0 uM

Sequence of Dual specificity protein kinase CLK2 (Homo sapiens) (P49760 whole entry, looked up): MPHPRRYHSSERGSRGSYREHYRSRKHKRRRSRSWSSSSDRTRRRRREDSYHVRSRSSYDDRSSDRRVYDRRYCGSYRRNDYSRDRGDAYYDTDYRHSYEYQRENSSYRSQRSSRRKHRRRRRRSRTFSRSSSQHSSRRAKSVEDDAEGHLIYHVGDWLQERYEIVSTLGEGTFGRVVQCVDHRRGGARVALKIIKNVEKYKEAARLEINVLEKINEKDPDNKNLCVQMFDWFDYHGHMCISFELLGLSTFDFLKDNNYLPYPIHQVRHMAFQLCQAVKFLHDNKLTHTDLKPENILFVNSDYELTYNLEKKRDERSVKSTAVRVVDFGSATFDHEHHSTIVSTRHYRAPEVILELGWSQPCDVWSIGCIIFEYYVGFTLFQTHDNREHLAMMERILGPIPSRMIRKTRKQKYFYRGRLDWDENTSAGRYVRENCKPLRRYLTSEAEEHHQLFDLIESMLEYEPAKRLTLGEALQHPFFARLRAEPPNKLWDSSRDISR
Sequence of Ribosomal protein S6 kinase alpha-2 (Homo sapiens) (Q15349 whole entry): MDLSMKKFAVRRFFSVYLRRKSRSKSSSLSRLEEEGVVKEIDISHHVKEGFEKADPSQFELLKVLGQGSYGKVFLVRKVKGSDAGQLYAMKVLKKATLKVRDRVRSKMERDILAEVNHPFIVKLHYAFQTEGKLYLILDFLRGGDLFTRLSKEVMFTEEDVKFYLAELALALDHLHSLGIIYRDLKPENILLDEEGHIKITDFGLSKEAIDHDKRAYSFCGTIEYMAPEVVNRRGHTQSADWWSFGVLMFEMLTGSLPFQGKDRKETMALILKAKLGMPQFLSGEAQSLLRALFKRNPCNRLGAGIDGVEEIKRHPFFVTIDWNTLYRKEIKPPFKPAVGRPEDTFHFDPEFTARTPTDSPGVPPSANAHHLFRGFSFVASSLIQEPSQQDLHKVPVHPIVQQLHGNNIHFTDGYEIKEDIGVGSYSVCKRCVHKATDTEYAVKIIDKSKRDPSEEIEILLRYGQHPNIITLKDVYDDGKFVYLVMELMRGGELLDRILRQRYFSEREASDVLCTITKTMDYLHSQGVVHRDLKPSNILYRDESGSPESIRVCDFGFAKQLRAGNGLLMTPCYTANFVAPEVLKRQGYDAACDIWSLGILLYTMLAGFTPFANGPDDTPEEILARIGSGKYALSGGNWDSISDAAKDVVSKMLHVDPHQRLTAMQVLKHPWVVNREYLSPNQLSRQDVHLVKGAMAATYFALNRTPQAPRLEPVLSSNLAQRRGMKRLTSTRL
Sequence of Serine/threonine-protein kinase N2 (Homo sapiens) (Q16513 whole entry, looked up): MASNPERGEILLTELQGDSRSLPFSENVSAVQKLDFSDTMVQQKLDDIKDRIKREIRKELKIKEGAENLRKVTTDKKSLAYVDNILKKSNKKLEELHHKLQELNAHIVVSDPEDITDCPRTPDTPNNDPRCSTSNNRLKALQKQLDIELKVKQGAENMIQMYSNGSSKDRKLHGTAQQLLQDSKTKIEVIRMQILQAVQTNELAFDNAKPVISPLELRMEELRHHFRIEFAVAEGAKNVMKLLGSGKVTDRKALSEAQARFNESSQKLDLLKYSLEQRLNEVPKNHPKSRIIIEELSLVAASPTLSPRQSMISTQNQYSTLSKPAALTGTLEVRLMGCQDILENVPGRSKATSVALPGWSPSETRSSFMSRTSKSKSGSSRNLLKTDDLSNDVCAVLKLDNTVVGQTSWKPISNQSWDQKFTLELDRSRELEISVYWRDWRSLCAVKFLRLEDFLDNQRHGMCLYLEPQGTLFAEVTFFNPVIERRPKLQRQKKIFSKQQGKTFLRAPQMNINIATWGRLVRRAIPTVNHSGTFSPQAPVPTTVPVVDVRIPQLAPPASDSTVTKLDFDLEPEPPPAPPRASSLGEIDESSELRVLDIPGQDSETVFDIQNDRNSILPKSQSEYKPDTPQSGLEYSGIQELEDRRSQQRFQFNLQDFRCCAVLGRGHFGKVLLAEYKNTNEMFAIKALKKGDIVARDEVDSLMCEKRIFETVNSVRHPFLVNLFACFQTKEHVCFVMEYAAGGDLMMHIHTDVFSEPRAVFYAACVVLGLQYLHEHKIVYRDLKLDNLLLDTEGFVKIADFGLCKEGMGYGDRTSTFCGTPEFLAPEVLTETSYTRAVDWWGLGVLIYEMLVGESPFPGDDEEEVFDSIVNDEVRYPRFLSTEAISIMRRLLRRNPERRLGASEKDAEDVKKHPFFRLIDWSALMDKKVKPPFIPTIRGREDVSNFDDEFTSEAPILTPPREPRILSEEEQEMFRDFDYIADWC
Sequence of Ribosomal protein S6 kinase alpha-1 (Homo sapiens) (Q15418 whole entry): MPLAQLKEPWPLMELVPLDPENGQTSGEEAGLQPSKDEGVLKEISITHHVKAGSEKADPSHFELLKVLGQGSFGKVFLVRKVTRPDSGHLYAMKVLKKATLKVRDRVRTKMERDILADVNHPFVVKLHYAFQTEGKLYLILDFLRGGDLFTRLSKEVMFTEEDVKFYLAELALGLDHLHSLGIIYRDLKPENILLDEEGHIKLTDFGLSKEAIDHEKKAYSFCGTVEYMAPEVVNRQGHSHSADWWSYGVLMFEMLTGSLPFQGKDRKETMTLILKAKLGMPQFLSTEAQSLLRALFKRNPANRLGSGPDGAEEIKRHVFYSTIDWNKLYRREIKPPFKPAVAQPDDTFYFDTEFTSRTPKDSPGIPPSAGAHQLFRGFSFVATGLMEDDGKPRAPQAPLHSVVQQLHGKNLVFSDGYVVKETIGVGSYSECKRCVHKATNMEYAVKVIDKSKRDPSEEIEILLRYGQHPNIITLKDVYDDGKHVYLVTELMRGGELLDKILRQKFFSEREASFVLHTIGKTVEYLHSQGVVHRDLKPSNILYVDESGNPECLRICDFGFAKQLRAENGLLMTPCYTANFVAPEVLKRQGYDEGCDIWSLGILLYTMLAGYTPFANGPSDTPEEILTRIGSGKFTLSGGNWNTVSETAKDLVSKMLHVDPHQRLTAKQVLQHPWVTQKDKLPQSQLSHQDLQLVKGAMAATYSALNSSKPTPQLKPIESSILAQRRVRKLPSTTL
Sequence of Microtubule-associated serine/threonine-protein kinase 1 (Homo sapiens) (Q9Y2H9 whole entry, looked up, canonical isoform): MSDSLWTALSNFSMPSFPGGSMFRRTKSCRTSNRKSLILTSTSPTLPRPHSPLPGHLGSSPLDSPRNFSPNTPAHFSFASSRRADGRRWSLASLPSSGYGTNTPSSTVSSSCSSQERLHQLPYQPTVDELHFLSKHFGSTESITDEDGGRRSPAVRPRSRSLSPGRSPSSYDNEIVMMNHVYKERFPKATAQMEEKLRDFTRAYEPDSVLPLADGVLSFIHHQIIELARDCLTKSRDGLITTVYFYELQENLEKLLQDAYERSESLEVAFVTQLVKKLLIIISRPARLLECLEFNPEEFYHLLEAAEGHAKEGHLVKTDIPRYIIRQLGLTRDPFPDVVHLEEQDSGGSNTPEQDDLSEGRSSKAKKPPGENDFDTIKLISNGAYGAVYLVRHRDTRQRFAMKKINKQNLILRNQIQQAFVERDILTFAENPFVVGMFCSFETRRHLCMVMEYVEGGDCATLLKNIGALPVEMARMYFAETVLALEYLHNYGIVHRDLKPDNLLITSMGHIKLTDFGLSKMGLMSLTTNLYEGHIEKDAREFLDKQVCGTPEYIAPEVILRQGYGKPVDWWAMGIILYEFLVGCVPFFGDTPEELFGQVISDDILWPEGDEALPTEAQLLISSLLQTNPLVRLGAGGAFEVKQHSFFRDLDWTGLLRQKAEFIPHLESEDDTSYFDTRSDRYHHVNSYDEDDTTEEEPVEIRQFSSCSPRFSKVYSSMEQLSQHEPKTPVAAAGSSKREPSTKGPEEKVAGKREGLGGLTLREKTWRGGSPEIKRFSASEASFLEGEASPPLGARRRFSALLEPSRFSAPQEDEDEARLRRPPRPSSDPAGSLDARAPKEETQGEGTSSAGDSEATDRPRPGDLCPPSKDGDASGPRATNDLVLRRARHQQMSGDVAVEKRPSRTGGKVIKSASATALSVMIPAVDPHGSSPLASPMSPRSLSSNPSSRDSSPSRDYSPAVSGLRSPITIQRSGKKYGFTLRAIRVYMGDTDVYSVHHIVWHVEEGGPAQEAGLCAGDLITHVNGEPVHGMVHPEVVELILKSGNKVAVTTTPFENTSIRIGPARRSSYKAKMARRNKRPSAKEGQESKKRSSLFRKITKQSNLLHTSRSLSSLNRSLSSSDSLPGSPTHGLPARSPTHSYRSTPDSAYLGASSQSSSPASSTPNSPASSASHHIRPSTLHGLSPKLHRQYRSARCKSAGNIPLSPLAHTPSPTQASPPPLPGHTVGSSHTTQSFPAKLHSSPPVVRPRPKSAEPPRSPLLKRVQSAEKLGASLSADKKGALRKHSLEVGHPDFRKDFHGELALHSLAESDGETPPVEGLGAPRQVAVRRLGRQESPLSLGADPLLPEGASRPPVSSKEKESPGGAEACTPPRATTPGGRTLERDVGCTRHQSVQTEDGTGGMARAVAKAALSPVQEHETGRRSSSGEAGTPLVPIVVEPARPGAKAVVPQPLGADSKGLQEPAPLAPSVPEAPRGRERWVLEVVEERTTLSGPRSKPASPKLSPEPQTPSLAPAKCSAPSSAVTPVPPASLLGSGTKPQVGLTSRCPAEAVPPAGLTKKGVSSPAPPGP
Sequence of Rhodopsin kinase GRK1 (Homo sapiens) (Q15835 whole entry): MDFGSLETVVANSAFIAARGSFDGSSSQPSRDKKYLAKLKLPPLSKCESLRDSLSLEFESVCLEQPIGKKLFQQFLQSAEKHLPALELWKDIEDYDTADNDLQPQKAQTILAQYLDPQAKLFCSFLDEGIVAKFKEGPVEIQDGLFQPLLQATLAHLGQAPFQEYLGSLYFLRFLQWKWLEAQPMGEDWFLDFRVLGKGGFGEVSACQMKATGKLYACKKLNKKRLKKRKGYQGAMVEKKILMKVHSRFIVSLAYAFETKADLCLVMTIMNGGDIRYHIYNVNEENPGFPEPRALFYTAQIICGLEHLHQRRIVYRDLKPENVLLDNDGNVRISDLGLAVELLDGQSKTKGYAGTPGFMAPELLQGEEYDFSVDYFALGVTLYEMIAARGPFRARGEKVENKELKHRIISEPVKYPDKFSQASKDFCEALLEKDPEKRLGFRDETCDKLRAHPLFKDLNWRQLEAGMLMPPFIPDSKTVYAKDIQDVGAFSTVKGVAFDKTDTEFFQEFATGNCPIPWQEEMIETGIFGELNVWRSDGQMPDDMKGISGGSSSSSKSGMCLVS

N#Cc1ccc(Nc2ccc3[nH]c(=O)[nH]c3c2)c(Cl)c1
inactive: residual activity [1] 92% | residual activity [2] 100% | residual activity [3] 100% | residual activity [4] 100% | residual activity [5] 100% | residual activity [6] 93% | residual activity [7] 100% | residual activity [8] 100% | residual activity [9] 81% | residual activity [10] 100% | residual activity [11] 100% | residual activity [12] 100% | residual activity [13] 100% | residual activity [14] 100% | residual activity [15] 100% | residual activity [16] 77% | residual activity [17] 96% | residual activity [18] 100% | residual activity [19] 70% | residual activity [20] 87% | residual activity [21] 100% | residual activity [22] 99% | inhibition [23] 10% | residual activity [24] 97% | residual activity [25] 90% | residual activity [26] 100% | residual activity [27] 100% | residual activity [28] 100% | residual activity [29] 77% | residual activity [30] 80% | inhibition [31] -2.02% | residual activity [32] 91% | residual activity [33] 100% | residual activity [34] 76% | residual activity [35] 100% | residual activity [36] 100% | residual activity [37] 100% | residual activity [38] 99% | residual activity [39] 93% | inhibition [40] 8.12% | inhibition [41] 10.2% | residual activity [42] 100% | residual activity [43] 94% | inhibition [44] 5.37%

O=C1CCc2cc(Nc3cc(OC4CCOCC4)c([N+](=O)[O-])cc3Cl)ccc2N1
inactive: residual activity [1] 100% | residual activity [2] 100% | residual activity [3] 92% | residual activity [4] 89% | residual activity [5] 98% | residual activity [6] 100% | residual activity [7] 98% | residual activity [8] 100% | residual activity [9] 90% | residual activity [10] 99% | residual activity [11] 100% | residual activity [12] 100% | residual activity [13] 100% | residual activity [14] 97% | residual activity [15] 70% | residual activity [16] 79% | residual activity [17] 87% | residual activity [18] 100% | residual activity [19] 96% | residual activity [20] 79% | residual activity [21] 100% | residual activity [22] 86% | inhibition [23] 17.2% | residual activity [24] 98% | residual activity [25] 87% | residual activity [26] 96% | residual activity [27] 100% | residual activity [28] 100% | residual activity [29] 63% | residual activity [30] 79% | inhibition [31] -2.6% | residual activity [32] 100% | residual activity [33] 100% | residual activity [34] 100% | residual activity [35] 86% | residual activity [36] 100% | residual activity [37] 93% | residual activity [38] 94% | residual activity [39] 73% | inhibition [40] 12.3% | inhibition [41] 29.2% | residual activity [42] 97% | residual activity [43] 100% | inhibition [44] 3.21%
